The conditions of data set [1]: cited from earlier work. The source says: As the major sensory and vasodilator neuropeptides, PACAP38 and VIP are involved in parasympathetic communication with the cranial vasculature. Abnormal activation and sensitization of the central trigeminovascular pain pathway mediate migraine and the release of these peptides.[5]
The subject of data set [2] is PAC1R construct used in the cryo-EM studies. The class given is cell-based, human. Particulars: cAMP, BacMam CHO-K1, pH 7.4, 30 min 37 °C, average ± SD, N=3.
Method: WT PAC1R and mutations used in the functional assay were cloned into pJIF1.1 for BacMam virus generation.
CHO-K1 cells were cultured in DMEM supplemented with 10% FBS and infected with BacMam viruses with a MOI of 100. 24 h after infection, cells were collected for membrane preparation or functional assay.
Activation of WT PAC1R and mutants was measured based on intracellular cAMP levels using Lance Ultra cAMP kit (PerkinElmer) according to the manufacturer’s protocol. […] Then 5 µL of 4× Eu-cAMP and 5 µL of 4× Ulight-Anti-cAMP working solutions were added to each well and incubated at room temperature for 60 min before reading with Envision (PerkinElmer). All signals (ratio of 665 nm/615 nm) were fit with a sigmoidal dose-response model using GraphPad Prism 7.
Both the average and S.D.
are calculated based 3 rounds of independent assays in 3 different days (N=3), and on each
day, duplicates were run for each dose on dose response curves.
# Ratio to WT is calculated as EC50 of mutation to EC50 of WT.
† The best-fit value of pEC50 from 3 different assays was used to calculate p value in T-test,
between WT and each mutation, with 2-tailed and equal variance (homoscedastic).

One may read the pEC50 as −log10 of the EC50, conventionally taken in molar units. A high value points to a low EC50.

Read-outs that look alike come from different tables or passages of the source.

As for `CC[C@H](C)[C@H](NC(=O)CNC(=O)[C@H](CC(=O)O)NC(=O)[C@H](CO)NC(=O)[C@@H](N)Cc1cnc[nH]1)C(=O)N[C@@H](Cc1ccccc1)C(=O)N[C@H](C(=O)N[C@@H](CC(=O)O)C(=O)N[C@@H](CO)C(=O)N[C@@H](Cc1ccc(O)cc1)C(=O)N[C@@H](CO)C(=O)N[C@@H](CCCNC(=N)N)C(=O)N[C@@H](Cc1ccc(O)cc1)C(=O)N[C@@H](CCCNC(=N)N)C(=O)N[C@@H](CCCCN)C(=O)N[C@@H](CCC(N)=O)C(=O)N[C@@H](CCSC)C(=O)N[C@@H](C)C(=O)N[C@H](C(=O)N[C@@H](CCCCN)C(=O)N[C@@H](CCCCN)C(=O)N[C@@H](Cc1ccc(O)cc1)C(=O)N[C@@H](CC(C)C)C(=O)N[C@@H](C)C(=O)N[C@@H](C)C(=O)N[C@H](C(=O)N[C@@H](CC(C)C)C(=O)NCC(=O)N[C@@H](CCCCN)C(=O)N[C@@H](CCCNC(=N)N)C(=O)N[C@@H](Cc1ccc(O)cc1)C(=O)N[C@@H](CCCCN)C(=O)N[C@@H](CCC(N)=O)C(=O)N[C@@H](CCCNC(=N)N)C(=O)N[C@H](C(=O)N[C@@H](CCCCN)C(=O)N[C@@H](CC(N)=O)C(=O)N[C@@H](CCCCN)C(N)=O)C(C)C)C(C)C)C(C)C)[C@@H](C)O` [PACAP38, pituitary adenylate cyclase-activating polypeptide], in data set [1] (in vivo, iv), the “induction of delayed migraine-like headaches” value is listed as “induces delayed migraine-like headaches”. Further, in data set [2], the pEC50 is 9.71 ± 0.21. For vasoactive intestinal polypeptide [VIP], the “induction of delayed migraine-like headaches” value in data set [1] (intravenous infusion) was “but not VIP induces delayed migraine-like headaches”.

(Values after publication PMC7196072, “Cryo-EM structures of PAC1 receptor reveal ligand binding mechanism” (Cell Research, 2020).)
